Results on three compounds are retold here after US20260151410A1, “Tetrahydronaphthyridine Derivatives, Medicine Prepared Therefrom, and Applications Thereof in Preventing and Treating Adhesion-related Diseases” (SCINNOHUB PHARMACEUTICAL CO., LTD, priority 2022, published 2026).

pIC50: −log10 of the molar value. Like-named read-outs stand apart in the source and are kept apart here.

Series [1] deals with MMP9 (Homo sapiens, UniProt P14780). The series is described as follows: Inhibition of recombinant human protease MMP9, fluorescence assay. The format is biochemical. Here is the method: (§1) The purpose is to determine the inhibitory activity of the compounds of the present disclosure on recombinant human proteases Trypsin, MMP9, and TACE.
Chain of MMP9 (P14780 94-707): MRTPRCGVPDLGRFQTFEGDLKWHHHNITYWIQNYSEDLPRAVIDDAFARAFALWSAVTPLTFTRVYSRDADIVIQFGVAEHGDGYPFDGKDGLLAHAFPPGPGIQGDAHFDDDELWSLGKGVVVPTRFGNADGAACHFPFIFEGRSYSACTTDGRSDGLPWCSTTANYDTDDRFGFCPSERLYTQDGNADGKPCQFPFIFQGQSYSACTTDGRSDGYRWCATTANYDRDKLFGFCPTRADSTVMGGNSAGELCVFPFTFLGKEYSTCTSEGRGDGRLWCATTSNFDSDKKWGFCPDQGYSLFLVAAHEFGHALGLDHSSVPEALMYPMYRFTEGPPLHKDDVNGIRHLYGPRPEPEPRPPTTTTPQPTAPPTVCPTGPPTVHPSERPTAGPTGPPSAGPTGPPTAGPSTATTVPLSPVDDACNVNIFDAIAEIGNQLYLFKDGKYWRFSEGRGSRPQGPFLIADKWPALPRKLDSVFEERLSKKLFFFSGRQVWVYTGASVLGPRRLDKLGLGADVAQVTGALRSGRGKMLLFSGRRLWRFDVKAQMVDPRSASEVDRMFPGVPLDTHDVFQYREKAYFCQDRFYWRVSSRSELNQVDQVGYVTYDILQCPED
(§2) • Trypsin: 100 mM Tris-HCl, 75 mM NaCl, 2.5 mM CaCl2, 10 mM Cysteine, pH 7.5 • MMP9: 50 mM Tris, 10 mM CaCl2), 150 mM NaCl, 0.05% Brij-35 (w/v), pH7.5 • TACE: 25 mM Tris, 2.5 μM ZnCl2, 0.005% Brij-35 (w/v), pH 9.0 […]
(§3) The inhibitory effect of the compounds of the present disclosure on the above three proteases was determined by the above test, and the measured IC50 values were as follows.

The target of series [2] is TACE(ADAM17) (Homo sapiens, UniProt P78536). The series is described as follows: Inhibition of recombinant human protease TACE, fluorescence assay. The format is biochemical. The protocol:
as §1, §2, §3

In series [3] the test system is postoperative intra-abdominal adhesions. The note with it: for extent (and locations) of intra-abdominal adhesions compared with the model group: rats, single gavage 12 mL/kg 2 hours before operation, 7 days after operation. The protocol: Seventy male SPF SD rats, 220±20 g each, were purchased from Beijing Vital River Experimental Animal Technology Co., Ltd. After 2 weeks of adaptive feeding in the laboratory, the animals were numbered by ear tags and randomized into 7 groups, with […] in each group.
The positive drug was tranexamic acid (TXA).
An amount of the positive drug tranexamic acid (TXA) was weighed and added with the electrolyte solution to prepare 64 mM and 21 mM solutions.
The animals were given a single dose at 12 mL/kg by oral gavage 2 hours before the laparotomy operation. The animals in the sham operation group and the model group were given the solvents.
The animals were fasted but water was given before the operation (>12 hours). The abdomen was locally depilated after inhalation anesthesia and disinfected with iodophor solution. An incision with the size of 3 cm was made in the midline area of the abdomen of the experimental animal using a scalpel, and the cecum was taken out. The serosal layer on each side of the ileocecal region was repeatedly rubbed with sterile gauze until there were needle-like bleeding points on the surface, forming a damaged wound inside and outside of the cecum. The cecum was returned back to the abdominal cavity. The abdominal cavity was closed, sutured layer by layer with surgical sutures, and disinfected. The entire operation should be performed aseptically. The experimental operations were carried out for 4 animals in each group. In the sham operation group, the animal's abdomens were opened only without damaging the cecum.
The animals were dissected and observed 7 days after the operation.
The intestinal adhesions were scored using the Phillips grading method.

Series [4] has as its system total proteases in the homogenate of the jejunal segment of the small intestine of rats. Briefly: Inhibition of total proteases in rat small intestine (jejunum) homogenate, fluorescent protease activity kit. It counts as biochemical. The following applies: ΔRFU within 30 minutes. From the text:
The purpose is to determine the inhibitory activity of the compounds of the present disclosure on total proteases in the homogenate of the jejunal segment of the small intestine of rats.
• a) Preparation of rat intestinal homogenate and protein quantification • i. Tissue sampling: The experimental animals were anesthetized and bled to death. The small intestine was folded in half from the ileocecal junction to the duodenum at the lower end of the stomach, and the jejunum in the middle with a size of about 4 cm was taken; after washing with a 0.9% sodium chloride solution, it was quickly frozen in liquid nitrogen and then transferred to −80° C. for storage; • ii. […] The total protein of the homogenate was quantified using the BCA protein concentration assay kit according to the instructions. • b) Inhibitory activity test of compound • i. […]
• v. […] The fluorescence signals at FI=Ex 485/Em 520 nm were detected continuously within 30 minutes (once every 5 minutes) using a kinetic mode. • c) Data analysis
The difference between fluorescence signals within 30 minutes was calculated and recorded as ΔRFU. […]
The inhibitory effect of the compounds of the present disclosure on the total proteases in the rat small intestine homogenate was determined by the above test, and the measured IC50 values were as follows.

Series [5] has as its system postoperative intestinal adhesions. The series is described as follows: Abdominal adhesion model by the file method (cecal friction), Phillips grading. It counts as in vivo, SD rats. The note with it: rats; gavage 2% solution 12 mL/kg 2 hours before operation + peritoneal irrigation 1% solution 2 mL/animal; 7th day after operation. The text has this:
• 3.1 Experimental animals: The male SPF SD rats (220 g each) were purchased from the Experimental Animal Center of Hangzhou Medical College and passed the inspection of Zhejiang Provincial Experimental Animal Quality Supervision and Inspection Station. […] The solvent used for intragastric administration was compound polyethylene glycol electrolyte solution; the solvent used for irrigation administration was sterile saline solution. • 3.3 Preparation of solvent: One bag of compound polyethylene glycol electrolyte solution (68.56 g) was dissolved in 1 L of pure water, and is further added with 44 g of glucose (containing water) to make the glucose content of 4% (w/v) in the solvent. The prepared solvent was stored at 2-8° C. and used within one week. • 3.4 Preparation of intragastric solution: An amount of test sample was weighed and added with an appropriate amount of sterile ultrapure water to prepare a 20% (w/v) stock solution, then an equivalent amount of NaOH was added to adjust the pH to neutral until completely dissolved (the pH value was measured). […]

Chain of TACE(ADAM17) (P78536 215-824): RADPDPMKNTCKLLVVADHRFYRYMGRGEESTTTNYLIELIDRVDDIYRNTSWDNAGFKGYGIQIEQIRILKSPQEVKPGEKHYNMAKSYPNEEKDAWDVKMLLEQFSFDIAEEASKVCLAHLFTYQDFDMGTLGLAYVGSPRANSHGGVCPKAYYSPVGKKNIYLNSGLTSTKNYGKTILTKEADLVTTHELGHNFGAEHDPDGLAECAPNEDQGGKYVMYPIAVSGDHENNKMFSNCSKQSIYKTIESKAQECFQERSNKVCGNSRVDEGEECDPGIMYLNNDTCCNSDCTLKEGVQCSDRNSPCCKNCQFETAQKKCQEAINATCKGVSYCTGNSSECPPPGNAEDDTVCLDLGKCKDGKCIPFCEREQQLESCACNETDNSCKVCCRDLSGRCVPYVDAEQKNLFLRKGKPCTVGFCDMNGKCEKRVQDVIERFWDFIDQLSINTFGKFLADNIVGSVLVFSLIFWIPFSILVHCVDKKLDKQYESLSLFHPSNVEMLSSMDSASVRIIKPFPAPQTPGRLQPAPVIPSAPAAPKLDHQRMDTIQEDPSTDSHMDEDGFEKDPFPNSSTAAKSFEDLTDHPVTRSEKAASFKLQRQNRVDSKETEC

By pIC50 is commonly meant the IC50 on a negative log10 scale, so that one unit is a factor of ten. Take `Cl.O=C(O)c1ccc2c(n1)CCNC2` [Preparative example 1, 5,6,7,8-tetrahydro-1,6-naphthyridine-2-carboxylic acid hydrochloride]: the pIC50 was 2.18 in series [1] (recombinant human MMP9 0.2 μg/mL, substrate 10 μM, room temperature 30 minutes, read-out: IC50 MMP9); 2.27 in series [2] (recombinant human TACE 0.2 μg/mL, substrate 20 μM, room temperature 30 minutes, read-out: IC50 TACE(ADAM17)); 1.87 in series [4]. Also, the “extent (and locations) of intra-abdominal adhesions compared with the model group” value was “reduced” in series [3] (21 mM solution) and “reduced significantly” in series [3] (64 mM solution).
On to `NC[C@H]1CC[C@H](C(=O)O)CC1` [tranexamic acid, reference compound], for which the “animal deaths after the operation” value in series [3] (rat, in vivo) is “one animal died”. Also, the figures for the “extent (and locations) of intra-abdominal adhesions compared with the model group” value in series [3] (21 mM solution) and in series [3] (64 mM solution) were “exhibited an alleviating trend” and “significantly alleviated”, respectively.
As to `Cl.O=P(O)(O)c1ccc2c(n1)CCNC2` [Preparative example 2, (5,6,7,8-tetrahydro-1,6-naphthyridin-2-yl) phosphonic acid hydrochloride], the values for the pIC50 in series [1], in series [2] and in series [4] were about 1.60, 2.13 and 1.75, respectively. Besides, the “animals with quantity and extent of intestinal adhesions significantly improved compared with the model group” value in series [5] is given as “more than 80%”. For the same compound, the “extent (and locations) of intra-abdominal adhesions compared with the model group” value in series [3] (64 mM solution) is given as “improved to a certain extent”.
